The assay concerns T1, LpUGT95.
T1 construct: cloned from cDNA into pMAL-c2x (MBP fusion vector), expressed in E. coli, purified recombinant
Kind of assay: UPLC product formation, Hyper […] fit. It is filed as biochemical, Lysionotus pauciflorus. Particulars: 2 mM UDP-glucose as sugar donor, 10 mM DTT, 50 mM Tris-HCl pH 7.4, 30 °C, 30 min.

As usually defined, the Km is the substrate concentration at which the rate is half of its maximum.

Take `COc1ccc(-c2cc(=O)c3c(O)c(OC)c(O)c(OC)c3o2)cc1` [nevadensin, 5,7-dihydroxy-6,8,4'-trimethoxyflavone]: the Km was found to be 596 µM.

Values taken from PMC9484059, “Integrated multi-omics analysis and microbial recombinant protein system reveal hydroxylation and glycosylation involving nevadensin biosynthesis in Lysionotus pauciflorus” (Microbial Cell Factories, 2022).
